Assay results reported in publication PMC5242352 (Iranian Journal of Pharmaceutical Research : IJPR, 2016).
Several values for one entry are separate records, joined by “and”; a condition that tells them apart may be missing. Identical values can stand only once. Like-named read-outs stand apart in the source and are kept apart here.

Molecular target: Jack bean urease (Canavalia ensiformis, UniProt P07374)
Test: Urease inhibition assay
Type: biochemical

Jack bean urease, sequence (P07374 whole entry, looked up): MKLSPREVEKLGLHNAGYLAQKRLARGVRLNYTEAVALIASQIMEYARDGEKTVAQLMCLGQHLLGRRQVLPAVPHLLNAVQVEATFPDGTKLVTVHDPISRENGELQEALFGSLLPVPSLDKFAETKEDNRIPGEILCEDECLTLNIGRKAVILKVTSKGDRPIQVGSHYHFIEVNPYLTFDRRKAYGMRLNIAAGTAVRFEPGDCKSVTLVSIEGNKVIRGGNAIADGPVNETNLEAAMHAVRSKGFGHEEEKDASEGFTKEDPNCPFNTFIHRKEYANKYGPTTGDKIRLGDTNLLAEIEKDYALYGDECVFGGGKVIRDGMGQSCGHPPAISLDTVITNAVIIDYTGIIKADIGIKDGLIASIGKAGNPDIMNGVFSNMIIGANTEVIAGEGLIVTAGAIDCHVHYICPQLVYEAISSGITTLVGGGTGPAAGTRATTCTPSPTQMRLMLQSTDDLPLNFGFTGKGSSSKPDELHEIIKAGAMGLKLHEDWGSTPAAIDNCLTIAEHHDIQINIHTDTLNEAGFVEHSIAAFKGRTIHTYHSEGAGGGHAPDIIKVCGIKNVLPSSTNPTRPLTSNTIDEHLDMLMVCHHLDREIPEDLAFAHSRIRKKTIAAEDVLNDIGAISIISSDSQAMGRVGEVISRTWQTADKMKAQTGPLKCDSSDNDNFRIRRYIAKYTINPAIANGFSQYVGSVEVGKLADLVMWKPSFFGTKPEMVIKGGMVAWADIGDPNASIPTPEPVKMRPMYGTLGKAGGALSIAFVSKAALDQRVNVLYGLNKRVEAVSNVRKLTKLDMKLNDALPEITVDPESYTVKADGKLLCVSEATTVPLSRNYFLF

SMILES	IC50 (IC50 (urease inhibitory activity), 37 °C, 30 minutes, read at 625 nm, triplicate)	IC50 (read-out: IC50 (urease inhibitory activity), 37 °C, 30 minutes, read at 625 nm, triplicate) [µM]
CC1(C)CC(=O)C2=C(C1)Nc1[nH]c(=O)[nH]c(=O)c1C21C(=O)Nc2ccccc21 (centres unmarked) [7a, 8',8'-Dimethyl-8',9'-dihydro-1'H-spiro [indoline-3,5'-pyrimido[4,5-b]quinoline]-2,2',4', 6'(3'H,7'H,10'H)-tetraone]	7.44 µM and 2.81 µM	–
NC(=O)NO [hydroxyurea, reference compound]	–	100
